US11883526B2 (priority 2019, dated 2024)

What was measured:
adult subjects with TRD = details: double-blind phase
Description: The CADSS is an instrument for the measurement of present-state dissociative symptoms, and was administered to assess treatment-emergent dissociative symptoms. The CADSS consists of 23 subjective items, divided into 3 components: Depersonalization (Items 3 to 7, 20, and 23), derealization (Items 1, 2, 8 to 13, 16 to 19, and 21) and amnesia (Items 14, 15, and 22). Participant's responses were coded on a 5-point scale (0=not at all through to 4=extremely).
The Clinician Administered Dissociative States Scale (CADSS) was measured prior to the start of each dose, at 40 minutes, and 1.5 hours postdose.

[1] = Pharmacokinetics of intranasal esketamine in healthy subjects (Example 9); details: across the 3 treatment groups
Description: This was an open-label, single-center study. The subjects were healthy Caucasian men and women, 20 to 55 years of age, inclusive. […] The solution consisted of:
Blood samples (4 mL each) for determination of esketamine and noresketamine plasma concentrations were collected into the appropriate collection tube (e.g., Vacutainer®) at timepoints 0.00, 0.12, 0.20, 0.37, 0.53, 0.67, 0.83, 1.00, 1.25, 1.50, 2.00, 3.00, 4.00, 6.00, 9.00, 12.00, 18.00, and 24.00 h. The total amount of blood to be drawn for clinical laboratory tests and PK evaluations is approximately 327 mL.
Plasma samples were analyzed for esketamine and noresketamine concentrations using the validated, specific and sensitive liquid chromatography coupled to tandem mass spectrometry (LC-MS/MS) achiral method of Example 8.
Serial PK blood samples (4 mL each) were collected for a 24-hour period from each subject (Periods 1, 2, and 3). […] Statistical Methods 1.6.4.1. Sample Size
The following key parameters of esketamine and noresketamine in plasma were calculated using noncompartmental methods and actual sampling times: Cmax, tmax, AUClast, AUC∞, t1/2,λ, and λz.

CN[C@]1(c2ccccc2Cl)CCCCC1=O [esketamine, (S)-2-(2-chlorophenyl)-2-(methylamino)cyclohexanone]
dissociative and perceptual change symptoms (CADSS) resolved by (adult subjects with TRD): ≤ 1.5 hours postdose
variability of AUC (AUClast and AUC∞) [1]: 25.0% to 30.4
variability of Cmax (percent coefficient of variation) [1]: 35.7% to 36.7
